# Assay results reported in paper PMC5410595, “In Vitro and In Silico Antidiabetic and Antimicrobial Evaluation of Constituents from Kickxia ramosissima (Nanorrhinum ramosissimum)” (Frontiers in Pharmacology, 2017).
# Where two headings read alike, the source gives them in different places.
# Legend:
# [1] = molecular target: T1, 15-LOX from soybean (Glycine max, UniProt P08170); test: 15-lipoxygenase inhibition assay; assay type: biochemical
# T1 sequence (P08170 1-839): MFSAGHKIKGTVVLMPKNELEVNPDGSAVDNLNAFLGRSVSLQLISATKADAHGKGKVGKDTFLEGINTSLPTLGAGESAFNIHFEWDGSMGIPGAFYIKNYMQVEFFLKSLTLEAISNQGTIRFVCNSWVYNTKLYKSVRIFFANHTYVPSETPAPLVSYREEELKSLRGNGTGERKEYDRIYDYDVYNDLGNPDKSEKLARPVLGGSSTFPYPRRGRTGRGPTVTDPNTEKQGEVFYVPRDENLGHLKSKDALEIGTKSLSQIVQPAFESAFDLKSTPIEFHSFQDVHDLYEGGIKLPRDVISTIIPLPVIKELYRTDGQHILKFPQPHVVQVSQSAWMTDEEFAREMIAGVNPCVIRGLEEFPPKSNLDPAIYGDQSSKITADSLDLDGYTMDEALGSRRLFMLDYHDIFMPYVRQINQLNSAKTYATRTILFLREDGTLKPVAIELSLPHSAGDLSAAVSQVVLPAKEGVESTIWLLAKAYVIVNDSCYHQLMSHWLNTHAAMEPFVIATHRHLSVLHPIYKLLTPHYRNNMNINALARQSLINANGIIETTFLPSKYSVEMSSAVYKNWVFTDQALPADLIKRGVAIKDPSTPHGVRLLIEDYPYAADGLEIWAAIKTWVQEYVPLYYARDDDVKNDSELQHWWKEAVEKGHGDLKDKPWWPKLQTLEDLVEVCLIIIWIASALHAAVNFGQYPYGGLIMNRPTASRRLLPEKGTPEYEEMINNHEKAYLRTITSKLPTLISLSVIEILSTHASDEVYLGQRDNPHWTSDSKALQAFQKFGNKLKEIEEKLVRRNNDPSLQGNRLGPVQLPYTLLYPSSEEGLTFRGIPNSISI
# Experimental: The soybean LOX assay is used as an indication of anti-inflammatory activity ([Muller, 1994]), and therefore during the present investigation, 15-LOX from soybean was used for peroxidation of linoleic acid, and inhibition was measured as described previously with slight modifications ([Malterud and Rydland, 2000]). Briefly, 12.5 μL (2–0.062 mM) of sample was dissolved in DMSO, and added to 487.5 μL of enzyme solution (200 U/mL). The mixture was incubated at room temperature for 5 min. Absorbance was recorded immediately after the addition of 500 μL of substrate (250 μM linoleic acid in 0.2 M borate buffer, pH 9) every minute up to 5 min at 234 nm.
# % inhibition of enzyme activity was calculated as,
# %inhibition of enzyme activity=([ΔA1/Δt]−[ΔA2/Δt])/(ΔA1/Δt)×100
# where ΔA1/Δt and ΔA2/Δt are the increase rate in absorbance at 234 nm for sample without test substance and with test substance, respectively.
# [2] = test system: Staphylococcus aureus; test: Antimicrobial screening panel: Staphylococcus aureus; assay type: cell-based
# Experimental: (§1) Fractions and isolated compounds were evaluated for antimicrobial activity in an integrated screening panel, also including the human MRC-5 cell line to assess selectivity, as reported before ([Cos et al., 2006]; [Mesia et al., 2008]; [Baldé et al., 2010]; [Amin et al., 2016]).
# [3] = test system: Trypanosoma cruzi, Tulahuen LacZ, clone C4; test: Antimicrobial screening panel: Trypanosoma cruzi; assay type: cell-based
# Experimental: as §1
# [4] = test system: Plasmodium falciparum K1; test: Antimicrobial screening panel: Plasmodium falciparum; assay type: cell-based
# Experimental: as §1
# [5] = test system: MRC-5, human fetal lung fibroblasts
# Experimental: as §1
# [6] = at the highest test concentration
structure (smiles),measurement,setting,value
"CO[C@H]1C[C@@]2(O)[C@H](O)[C@@H](O)[C@](C)(OC)[C@H]2[C@@H](OC)O1 [Compound 1, Kickxiasine]",15-LOX assay % inhibition,[1]; [6],30%
"CC1(O)CCC2C(C(=O)O)=COC(OC3OC(CO)C(O)C(O)C3O)C21 (stereo not shown) [Compound 2, Mussaenosidic acid]",IC50,[1],220 µM
"COC(=O)C1=COC(OC2OC(CO)C(O)C(O)C2O)C2C1CCC2(C)O (stereo not shown) [Compound 3, Mussaenoside]",15-LOX assay % inhibition,[1]; [6],37%
"COc1ccc(-c2cc(=O)c3c(O)c(OC)c(O)cc3o2)cc1 [Compound 5, Pectolinarigenin]",15-LOX assay % inhibition,[1],46%
same,IC50,[2],49.8 µM
same,IC50,[3],32 µM
same,IC50,[4],41.8 µM
same,cytotoxicity against MRC-5 cells,[5],not cytotoxic
"COc1ccc(-c2cc(=O)c3c(O)c(OC)c(O[C@@H]4O[C@H](CO[C@@H]5O[C@@H](C)[C@H](O)[C@@H](O)[C@H]5O)[C@@H](O)[C@H](O)[C@H]4O)cc3o2)cc1 [Compound 6, Pectolinarin]",IC50,[1]; read-out: 15-LOX IC50,250 µM
"COC(=O)c1ccc(O)cc1 [Compound 7, 4-Hydroxy benzoic acid methyl ester]",15-LOX assay % inhibition,[1]; [6],30%
